# Measurements as given in US20080096807A1, “Cyclic vasoactive intestinal peptide receptor-2 agonists” (priority 2006, published 2008).
# Bridge positions count the residues as written; N and C are the ends. Square brackets hold non-standard residues; d marks the D form. Peptide text beside a SMILES is read from it. ξ: configuration not given here. Thr(3ξ) = CC(O)[C@H](N)C(=O)O; αMeV = CC(C)[C@](C)(N)C(=O)O; Nle = CCCC[C@H](N)C(=O)O
# Target: T1, human neutrophil elastase (Homo sapiens, UniProt P08246)
# T1 sequence (P08246 30-247 limits assumed): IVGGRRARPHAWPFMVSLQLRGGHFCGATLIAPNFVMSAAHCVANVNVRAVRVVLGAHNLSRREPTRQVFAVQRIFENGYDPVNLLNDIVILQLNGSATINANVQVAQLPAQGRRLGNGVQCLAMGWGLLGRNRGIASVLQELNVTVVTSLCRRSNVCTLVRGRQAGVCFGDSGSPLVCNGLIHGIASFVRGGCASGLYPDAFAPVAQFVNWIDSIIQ
# Assay: Peptide stability to neutrophil elastase (RP HPLC ESI MS)
# Settings: halftime with human neutrophil elastase 1 to 2 μg/mL in PBS, ambient temperature, normalized to halftime of the reference standard
row,Relative elastase stability,SMILES
1,3.4,"CCCC[C@H](NC(=O)[C@H](CCC(N)=O)NC(=O)[C@H](CCCCN)NC(=O)[C@H](CCCNC(=N)N)NC(=O)[C@H](CC(C)C)NC(=O)[C@H](CCCCN)NC(=O)[C@@H](NC(=O)[C@H](Cc1ccc(O)cc1)NC(=O)[C@H](CC(N)=O)NC(=O)[C@H](CCC(=O)O)NC(=O)[C@@H](NC(=O)[C@H](Cc1ccccc1)NC(=O)[C@@](C)(NC(=O)[C@H](C)NC(=O)[C@H](CC(=O)O)NC(=O)[C@H](CO)NC(=O)[C@H](Cc1c[nH]cn1)NC(C)=O)C(C)C)C(C)O)C(C)O)C(=O)N[C@@H](C)C(=O)N[C@@H](C)C(=O)N[C@@H](CCCCN)C(=O)N[C@H]1CCCCNC(=O)C[C@@H](C(=O)N[C@@H](CC(C)C)C(=O)N[C@@H](CC(C)C)C(=O)N[C@@H](CCCCN)C(=O)NCC(=O)NCC(=O)N[C@H](C(N)=O)C(C)O)NC(=O)[C@H](CC(N)=O)NC(=O)[C@H](CC(C)C)NC(=O)[C@H](Cc2ccc(O)cc2)NC1=O (stereo partly drawn) [Example 20, Ac-His-Ser-Asp-Ala-MeVal-Phe-Thr-Glu-Asn-Tyr-thr-Lys-Leu-Arg-Lys-Gln-Nle-Ala-Ala-Lys-Lys-Tyr-Leu-Asn-Asp-Leu-Leu-Lys-Gly-Gly-Thr-NH2] (Ac-HSDA[αMeV]F[Thr(3ξ)]ENY[Thr(3ξ)]KLRKQ[Nle]AAKKYLNDLLKGG[Thr(3ξ)]-NH2; lactam 21-25)"
2,3.6,"CCCC[C@H](NC(=O)[C@H](CCC(N)=O)NC(=O)[C@H](CCCCN)NC(=O)[C@H](CCCNC(=N)N)NC(=O)[C@H](CC(C)C)NC(=O)[C@H](CCCCN)NC(=O)[C@@H](NC(=O)[C@H](Cc1ccc(O)cc1)NC(=O)[C@H](CC(N)=O)NC(=O)[C@H](CCC(=O)O)NC(=O)[C@@H](NC(=O)[C@H](Cc1ccccc1)NC(=O)[C@@](C)(NC(=O)[C@H](C)NC(=O)[C@H](CC(=O)O)NC(=O)[C@H](C)NC(=O)[C@H](Cc1c[nH]cn1)NC(C)=O)C(C)C)C(C)O)C(C)O)C(=O)N[C@@H](C)C(=O)N[C@@H](C)C(=O)N[C@@H](CCCCN)C(=O)N[C@H]1CCCCNC(=O)C[C@@H](C(=O)N[C@@H](CC(C)C)C(=O)N[C@@H](CC(C)C)C(=O)N[C@@H](CCCCN)C(=O)NCC(=O)NCC(=O)N[C@H](C(N)=O)C(C)O)NC(=O)[C@H](CC(N)=O)NC(=O)[C@H](CC(C)C)NC(=O)[C@H](Cc2ccc(O)cc2)NC1=O (stereo partly drawn) [Example 23, Ac-His-Ala-Asp-Ala-MeVal-Phe-Thr-Glu-Asn-Tyr-Thr-Lys-Leu-Arg-Lys-Gln-Nle-Ala-Ala-Lys-Lys-Tyr-Leu-Asn-Asp-Leu-Leu-Lys-Gly-Gly-Thr-NH2]"
3,1.8,"CCCC[C@H](NC(=O)[C@H](CCCNC(=N)N)NC(=O)[C@H](CCCCN)NC(=O)[C@H](CCCNC(=N)N)NC(=O)[C@H](CC(C)C)NC(=O)[C@H](CCCCN)NC(=O)[C@@H](NC(=O)[C@H](Cc1ccc(O)cc1)NC(=O)[C@H](CC(N)=O)NC(=O)[C@H](CCC(=O)O)NC(=O)[C@@H](NC(=O)[C@H](Cc1ccccc1)NC(=O)[C@@](C)(NC(=O)[C@H](C)NC(=O)[C@H](CC(=O)O)NC(=O)[C@H](CO)NC(=O)[C@H](Cc1c[nH]cn1)NC(C)=O)C(C)C)C(C)O)C(C)O)C(=O)N[C@@H](C)C(=O)N[C@@H](C)C(=O)N[C@@H](CCCCN)C(=O)N[C@H]1CCCCNC(=O)C[C@@H](C(=O)N[C@@H](CC(C)C)C(=O)N[C@@H](CCCCN)C(=O)N[C@@H](CCCCN)C(=O)NCC(=O)NCC(=O)N[C@H](C(N)=O)C(C)O)NC(=O)[C@H](CC(N)=O)NC(=O)[C@H](CC(C)C)NC(=O)[C@H](Cc2ccc(O)cc2)NC1=O (stereo partly drawn) [Example 22, Ac-His-Ser-Asp-Ala-MeVal-Phe-Thr-Glu-Asn-Tyr-Thr-Lys-Leu-Arg-Lys-Arg-Nle-Ala-Ala-Lys-Lys-Tyr-Leu-Asn-Asp-Leu-Lys-Lys-Gly-Gly-Thr-NH2]"
